We go through five molecules from patent publication US6334995B1, “Process for the preparation of technetium-99m diethylene triamine penta-acetic acid diester” (Council of Scientific & Industrial Research, priority 1998, dated 2002).

Like-named read-outs stand apart in the source and are kept apart here.

A short description of series [1]: Renal plasma clearance in rats, single injection method. Type of series: in vivo. To be noted: plasma samples at 20 and 30 min, single compartment model. The method, then: (§1) Renal plasma clearance of technetium-99m diethylene triamine pentaacetic acid dimethyl ester was studied in rats by single injection method. Two plasma samples were collected at 20 and 30 min time point. The clearance was calculated using a single compartment model. Iodine-131 orthoiodo-hippurate was coinjected as standard. This experiment was also performed with technetium-99m mercaptoacetylglycylglycylglycine. […] The corresponding values in dog (10-12 kg) for technetiumn-99m diethylene triamine pentaacetic acid dimethyl ester and technetium-99m mercaptoacetylglycylglycylglycine along with coinjected hippurate were 72, 80 and 157 ml/min. These values are much higher than technetium-99m diethylene triamine pentaacetic acid in rats (0.82 ml/min 100 g) or dogs (43 ml/min).

Series [2] is classed as in vivo. To be noted: dog (10-12 kg). The method, then: as §1
A short description of series [3]: Comparative biodistribution in rats. It counts as in vivo. To be noted: for hepatobiliary accumulation: conclusion from biodistribution in rats or mice or scintigraphic experiments on dog; for Blood, percent dose per organ / Intestine, percent dose per organ / Kidney, percent dose per organ / Liver, percent dose per organ / Urine, percent dose per organ: rat. The method, then: (§2) Biological evaluation of technetium-99m diethylenie triamine pentaacetic acid diester by comparative biodistribution with iodine-131 orthoiodo-hippurate and technetium-99m mercaptoacetylglycylglycylglyciine.
(§3) The comparative biodistribution experiment was undertaken in mice and rats. In mice either technetium-99m diethylene triamine pentaacetic acid diester or technetium-99m mercaptoacetylglycylglycylglycine were injected via the tail vein along with iodine-131 orthoiodo-hippurate. Rats were anaesthetised with urethane and the above radiochemicals were injected via the femoral vein. After predetermined time interval the animals were sacrificed and the organs were taken in the counting vial. Considerable care were exercised not to loose any urine during the process.

A short description of series [4]: Comparative biodistribution in mice. Type of series: in vivo. The method, then: as §2, §3
The conditions of series [5]: cited from earlier work; for extraction efficiency: background statement; for Renal extraction: background comparison of MAG3 with iodine-131 orthoiodo-hippurate.
For series [6] the following is noted: background statement; cited from earlier work.
The conditions of series [7]: background statement; cited from earlier work. This is another data set of the same source.

In series [1], “technetium-99m diethylene triamine pentaacetic acid dimethyl ester [compound 2]” returned a Renal plasma clearance of 1.39 ml/min/100 g. Moreover, the Renal plasma clearance in series [2] is 72 mL/min. Also, the hepatobiliary accumulation entry in series [3] is listed as “no hepatobiliary accumulation”. In series [3] (10 min post-injection), the “Blood, percent dose per organ” value was 8.26 ± 0.75 percent dose per organ; the “Intestine, percent dose per organ” value amounted to 2.19 ± 0.41 percent dose per organ; the “Kidney, percent dose per organ” value was found to be 3.21 ± 0.29 percent dose per organ; the “Liver, percent dose per organ” value is given as 2.14 ± 0.41 percent dose per organ. For the same molecule, the “Urine, percent dose per organ” value in series [3] (10 min post-injection) is reported as 30.94 ± 3.40 percent dose per organ. For the same molecule, in series [3] (30 min post-injection), the “Blood, percent dose per organ” value was determined as 3.49 ± 0.36 percent dose per organ; the “Intestine, percent dose per organ” value is 1.53 ± 0.10 percent dose per organ; the “Kidney, percent dose per organ” value is reported as 1.47 ± 0.41 percent dose per organ; the “Liver, percent dose per organ” value came out at 0.91 ± 0.03 percent dose per organ. Besides, in series [3] (30 min post-injection), the “Urine, percent dose per organ” value came out at 64.20 percent dose per organ. In series [4] (10 min post-injection), the “Blood, percent dose per organ” value turned out to be 7.27 ± 2.41 percent dose per organ; the “Intestine, percent dose per organ” value is 3.40 ± 0.25 percent dose per organ; the “Kidney, percent dose per organ” value is on record as 3.36 ± 0.98 percent dose per organ; the “Liver, percent dose per organ” value is listed as 1.65 ± 0.11 percent dose per organ. In addition, the “Urine, percent dose per organ” value in series [4] (10 min post-injection) turned out to be 46.39 ± 3.67 percent dose per organ. Also, in series [4] (30 min post-injection), the “Blood, percent dose per organ” value is given as 1.51 ± 0.53 percent dose per organ; the “Intestine, percent dose per organ” value is on record as 1.67 ± 0.91 percent dose per organ; the “Kidney, percent dose per organ” value came out at 1.28 ± 0.52 percent dose per organ; the “Liver, percent dose per organ” value was determined as 1.22 ± 0.25 percent dose per organ. Also, the “Urine, percent dose per organ” value in series [4] (30 min post-injection) is 73.23 percent dose per organ.

Turning to “Technetium-99m diethylene triamine pentaacetic acid [compound 4]”, the Renal plasma clearance in series [1] came out at 0.82 ml/min/100 g; in series [2], 43 mL/min. The “Blood, percent dose per organ” value in series [3] (10 min post-injection) is 19.06 ± 2.37 percent dose per organ; in series [3] (30 min post-injection) it was 7.08 ± 1.50 percent dose per organ; in series [4] (10 min post-injection) it was 14.66 ± 3.33 percent dose per organ; in series [4] (30 min post-injection) it was 5.55 ± 1.22 percent dose per organ. Also, the “Intestine, percent dose per organ” value in series [3] (10 min post-injection) came to 3.65 ± 2.05 percent dose per organ; in series [3] (30 min post-injection), 6.43 ± 1.42 percent dose per organ; in series [4] (10 min post-injection), 2.71 ± 0.20 percent dose per organ; in series [4] (30 min post-injection), 3.12 ± 0.85 percent dose per organ. The “Kidney, percent dose per organ” value in series [3] (10 min post-injection) was 5.13 ± 1.00 percent dose per organ; in series [3] (30 min post-injection), 2.78 ± 1.00 percent dose per organ; in series [4] (10 min post-injection), 2.57 ± 0.30 percent dose per organ; in series [4] (30 min post-injection), 1.08 ± 0.03 percent dose per organ. The “Liver, percent dose per organ” value in series [3] (10 min post-injection) is reported as 4.91 ± 1.18 percent dose per organ; in series [3] (30 min post-injection), 3.30 ± 0.79 percent dose per organ; in series [4] (10 min post-injection) it was 2.57 ± 0.47 percent dose per organ; in series [4] (30 min post-injection) it was 1.02 ± 0.30 percent dose per organ. Further, the “Urine, percent dose per organ” value in series [3] (10 min post-injection) turned out to be 21.23 ± 1.61 percent dose per organ; in series [3] (30 min post-injection) it was 43.32 percent dose per organ; in series [4] (10 min post-injection) it was 35.48 ± 2.92 percent dose per organ; in series [4] (30 min post-injection), 60.15 percent dose per organ. In series [5], the extraction efficiency is on record as 20%.

For the molecule `O=C(O)CNC(=O)c1ccccc1I` [Orthoiodo-hippurate], the extraction efficiency in series [5] was 87%.

As to `O=C(O)CNC(=O)c1ccccc1[131I]` [compound 1, Iodine-131 orthoiodo-hippurate], the Renal plasma clearance in series [1] worked out at 2.68 ml/min/100 g. For the same molecule, in series [6], the protein binding was 32%. For the same molecule, in series [2], the Renal plasma clearance was 157 mL/min. In series [3] (10 min post-injection), the “Blood, percent dose per organ” value came to 5.61 ± 0.87 percent dose per organ; the “Intestine, percent dose per organ” value is 2.12 ± 0.41 percent dose per organ; the “Kidney, percent dose per organ” value stood at 3.72 ± 0.77 percent dose per organ; the “Liver, percent dose per organ” value was 3.29 ± 1.14 percent dose per organ. The “Urine, percent dose per organ” value in series [3] (10 min post-injection) was found to be 48.92 ± 1.54 percent dose per organ. In addition, in series [3] (30 min post-injection), the “Blood, percent dose per organ” value is on record as 1.47 ± 0.28 percent dose per organ; the “Intestine, percent dose per organ” value came out at 1.92 ± 0.39 percent dose per organ; the “Kidney, percent dose per organ” value came to 0.94 ± 0.20 percent dose per organ; the “Liver, percent dose per organ” value is recorded as 0.80 ± 0.12 percent dose per organ. The “Urine, percent dose per organ” value in series [3] (30 min post-injection) came out at 79.80 percent dose per organ. Moreover, in series [4] (10 min post-injection), the “Blood, percent dose per organ” value was 3.00 ± 1.29 percent dose per organ; the “Intestine, percent dose per organ” value is given as 2.16 ± 0.28 percent dose per organ; the “Kidney, percent dose per organ” value came out at 2.57 ± 1.05 percent dose per organ; the “Liver, percent dose per organ” value turned out to be 2.47 ± 0.26 percent dose per organ. Moreover, the “Urine, percent dose per organ” value in series [4] (10 min post-injection) amounted to 64.85 ± 2.74 percent dose per organ. In addition, in series [4] (30 min post-injection), the “Blood, percent dose per organ” value is listed as 1.41 ± 0.72 percent dose per organ; the “Intestine, percent dose per organ” value is on record as 1.21 ± 0.47 percent dose per organ; the “Kidney, percent dose per organ” value was 0.59 ± 0.30 percent dose per organ; the “Liver, percent dose per organ” value stood at 0.90 ± 0.14 percent dose per organ. In addition, in series [4] (30 min post-injection), the “Urine, percent dose per organ” value is 80.38 percent dose per organ. Moreover, the Renal extraction in series [5] is on record as 79%.

As for “technetium-99m mercaptoacetylglycylglycylglycine [compound 3]”, in series [1], the Renal plasma clearance was determined as 1.45 ml/min/100 g. For the same molecule, the protein binding in series [6] was 77%. This molecule yielded a Renal plasma clearance in series [2] of 80 mL/min. In series [3], the hepatobiliary accumulation result is given as “appreciable amount”. In series [3] (10 min post-injection), the “Blood, percent dose per organ” value is reported as 4.22 ± 0.40 percent dose per organ; the “Intestine, percent dose per organ” value is 4.94 ± 1.39 percent dose per organ; the “Kidney, percent dose per organ” value is given as 8.51 ± 1.54 percent dose per organ; the “Liver, percent dose per organ” value is 3.37 ± 0.76 percent dose per organ. The “Urine, percent dose per organ” value in series [3] (10 min post-injection) is listed as 33.15 ± 6.30 percent dose per organ. In series [3] (30 min post-injection), the “Blood, percent dose per organ” value turned out to be 2.31 ± 0.24 percent dose per organ; the “Intestine, percent dose per organ” value is on record as 10.12 ± 0.88 percent dose per organ; the “Kidney, percent dose per organ” value amounted to 2.99 ± 0.96 percent dose per organ; the “Liver, percent dose per organ” value was 4.48 ± 1.48 percent dose per organ. For the same molecule, the “Urine, percent dose per organ” value in series [3] (30 min post-injection) is 63.50 percent dose per organ. Besides, in series [4] (10 min post-injection), the “Blood, percent dose per organ” value was found to be 6.60 ± 2.37 percent dose per organ; the “Intestine, percent dose per organ” value was 3.31 ± 0.40 percent dose per organ; the “Kidney, percent dose per organ” value amounted to 4.32 ± 0.15 percent dose per organ; the “Liver, percent dose per organ” value came to 7.07 ± 0.82 percent dose per organ. For the same molecule, in series [4] (10 min post-injection), the “Urine, percent dose per organ” value is given as 48.34 ± 2.36 percent dose per organ. Also, in series [4] (30 min post-injection), the “Blood, percent dose per organ” value was 1.23 ± 0.26 percent dose per organ; the “Intestine, percent dose per organ” value was 5.82 ± 0.60 percent dose per organ; the “Kidney, percent dose per organ” value is listed as 1.12 ± 0.25 percent dose per organ; the “Liver, percent dose per organ” value is reported as 4.36 ± 0.43 percent dose per organ. Moreover, the “Urine, percent dose per organ” value in series [4] (30 min post-injection) was found to be 70.99 percent dose per organ. In addition, the Renal extraction in series [5] is recorded as 53%. Further, the “accumulation in hepatobiliary system” value in series [7] is reported as “Unwanted accumulation in hepatobiliary system is observed”.
